The source of these data is patent publication US10213409B2, “Substituted benzofurans, benzothiophenes, benzoselenophenes and indoles and their use as tubulin polymerisation inhibitors” (Bionomics Limited, priority 2006, dated 2019).

One assay concerns MDA-MB-231. Kind of assay: Growth inhibition, Sulforhodamine B (SRB) or Systmex cell counting (CC) assay, MDA-MB-231. The assay is classed as cell-based. The following applies: Homo sapiens; MDA-MB-231 (footnote b); concentration required to inhibit net cell growth by 50%; read-out: Cancer cell line IC50.
For assay [1], the system named is Human umbilical vein endothelial cells (HUVECs), tumour type activated (Tum). Briefly: Proliferation Assay - Activated Endothelium (MTT). The assay is classed as cell-based. The following applies: for IC50: Homo sapiens, HUVEC, tumour type activated endothelial cells; for potency towards activated (tumour) versus quiescent (normal) endothelial cells: comparison of activated and quiescent HUVEC assays, FIGS. 1 and 2, Table 1. The protocol: Proliferation Assay—Activated Endothelium:
Cells were cultured overnight at 37° C. 5% CO2. Medium was subsequently replaced with fresh medium including the compound or negative control. Cells were cultured for a period of 48 hrs. An MTT assay was performed to measure changes in cell numbers. Briefly, 20 μl of MTT reagent was added to cells containing 100 μl of EGM2 and incubated at 37° C. for 2 hours.

Assay [2] deals with Human umbilical vein endothelial cells (HUVECs), normal quiescent type (Norm). Kind of assay: Proliferation Assay - Quiescent Endothelium (MTT). The assay is classed as cell-based. The following applies: HUVEC. The protocol:
Proliferation Assay—Quiescent Endothelium:
Cells were cultured overnight at 37° C. 5% CO2. Medium was subsequently replaced with fresh medium including the compound or negative control. Cells were cultured for a period of 48 hrs. An MTT assay was performed to measure changes in cell numbers. Briefly, 20 μl of MTT reagent was added to cells containing 100 μl of EBM2+0.5% FBS and incubated at 37° C. for 2 hours.

The subject of assay [3] is MDA MB 231 orthotopic xenografts. Kind of assay: Vascular Disruption Assay (tumor perfusion, Hoechst 33342). The assay is classed as in vivo, BALB/c-nu/nu mice. The following applies: compared with CA4 / CA4P, FIG. 4; i.v., 24 hours after injection. From the text: Vascular Disruption Assay:
Female athymic BALB/c-nu/nu mice (nude mice) were used for this study. Mice were between 6-8 weeks old and were purchased from the Animal Resource Centre, Perth, Western Australia and allowed to acclimatize for a couple of days. All the animals were housed under pathogen-free conditions and cared for in accordance with Flinders University of South Australia and NH&MRC guidelines and the Australian Code of Practice for the care and use of animals for scientific purposes. The human breast cancer MDA MB 231 was grown as orthotopic xenografts in the mammary fat pad of nude mice. Each mouse was injected with 2×10^6 cells in 50 μl Dulbecco's PBS subcutaneously just above the mammary fat pad, below the right forward limb. Tumors were selected for treatment when they reached a diameter of […] (3 weeks after implantation). The test compound (Example 29) was dissolved in saline solution and injected intravenously at concentrations ranging from 150 mg/kg-1 mg/kg in a total volume of 400 ul. […] Non-tumor regions were mapped on Hoechst 33342 composite images and excluded from the quantitation analysis. Quantitation was performed by measuring the pixel area of Hoechst 33342 staining and the total pixel area of the tumor region. Perfusion was expressed as a percentage of Hoechst 33342 stained area to total tumor area (see FIG. 4).

Assay [4] deals with MDA-MB-231 solid orthotopic tumors. Briefly: Tumor Growth Inhibition. The following applies: 40 mg/kg i.v., two cycles, 72 days; vs vehicle, significant from day 4 (p<0.001) to Day 70, FIG. 5. The assay is classed as in vivo, Balb/c nu/nu mice. Here is the method:
Balb/c nu/nu mice bearing MDA-MB-231 solid orthotopic tumors were treated with compound Example 29 at 40 mg/kg. Animals were i.v. dosed with a total of two cycles of Example 29 treatment. Each cycle was dosing on […] followed by a three week no-dosing period. Tumor growth represented as a ratio to initial tumor volume is shown over a total of 72-days.
Tumor growth as well as animal health were monitored for up to 72 days post-day 1 of treatment. […] Significant differences in tumor growth between Example 29 treated (n=64) and vehicle treated (n=20) animals were observed as early as day 4 (p<0.001; unpaired t-test; Prism® analysis) through to Day 70.

Another assay relates to MCF-7. Briefly: Growth inhibition, Sulforhodamine B (SRB) or Systmex cell counting (CC) assay, MCF-7. The following applies: Homo sapiens, MCF7, concentration required to inhibit net cell growth by 50%, read-out: Cancer cell line IC50. The assay is classed as cell-based.
Another assay relates to tubulin. Briefly: Tubulin Polymerisation Assay (fluorescent-based kit). The following applies: compared with CA4 (1), FIG. 3. The assay is classed as biochemical. Here is the method: Tubulin Polymerisation Assay:
Tubulin polymerisation inhibition assays were performed using a fluorescent-based detection kit (#BK011, Cytoskeleton) according to the instructions of the manufacturer. The test compound was added to a 2 mg/ml tubulin solution containing 20% glycerol and 1 mM GTP in 1× Buffer 1 (Buffer 1: 80 mM Piperazine-N,N′-bis[2-ethanesulfonic acid] sequisodium salt; 2 mM magnesium chloride; 0.5 mM Ethylene glycol-bis(b-amino-ethyl ether)N,N,N′,N′-tetra-acetic acid, pH 6.9, 10 uM fluorescent reporter). Fluorescence was measured over a period of 42 minutes at 1 minute intervals. Increased fluorescence indicates increase in tubulin polymerisation. There is a ten-fold increase in the affinity of the fluorescent reporter for polymerised tubulin compared to monomeric tubulin subunits. The result is a fluorescence signal that closely follows tubulin polymerisation.

In general, IC50 refers to the concentration needed to halve the response being measured.

In the case of `COC(=O)c1oc2c(O)c(OC)ccc2c1C(=O)c1cc(OC)c(OC)c(OC)c1` [Example 17, 7-Hydroxy-6-methoxy-3-(3,4,5-trimethoxy-benzoyl)-benzofuran-2-methylcarboxylate], the IC50 (with MDA-MB-231; in assay [1]; in assay [2]) was 1 to 10 nM in each case.

With `COc1cc(C(=O)c2c(Nc3cccnc3)oc3c(O)c(OC)ccc23)cc(OC)c1OC` [Example 25, [7-Hydroxy-6-methoxy-2-(pyridin-3-ylamino)-benzofuran-3-yl]-(3,4,5-trimethoxy-phenyl)-methanone], the IC50 (in the assay on MDA-MB-231; in assay [1]; in assay [2]) was 1 to 10 nM throughout.

On to `COc1cc(C(=O)c2c(/C=C/C(N)=O)oc3c(O)c(OC)ccc23)cc(OC)c1OC` [Example 15, (E)-3-[7-Hydroxy-6-methoxy-3-(3,4,5-trimethoxy-benzoyl)benzofuran-2-yl]-acrylamide], for which the IC50 (with MDA-MB-231; in assay [1]; in assay [2]) was 1 to 10 nM in each case. In addition, the “potency towards activated (tumour) versus quiescent (normal) endothelial cells” value in assay [1] is recorded as “higher potency towards tumour endothelial cells (activated) over normal endothelial cells (quiescent)”.

In the case of `COc1cc(C(=O)c2c(C)oc3c(OP(=O)([O-])[O-])c(OC)ccc23)cc(OC)c1OC.[Na+].[Na+]` [Example 29, Disodium 6-methoxy-2-methyl-3-(3,4,5-trimethoxybenzoyl)benzofuran-7-yl phosphate], in assay [3], the “potency at shutting-down tumour vasculature (reduction in tumour perfusion)” value is “significantly greater potency than CA4 (1)”. For the same compound, the “tumor growth (ratio to initial tumor volume)” value in assay [4] was “tumor growth inhibition”.

Regarding `COc1cc(C(=O)c2c(NCCO)oc3c(O)c(OC)ccc23)cc(OC)c1OC` [Example 20, [7-Hydroxy-2-(2-hydroxy-ethylamino)-6-methoxy-benzofuran-3-yl]-(3,4,5-trimethoxy-phenyl)methanone], the IC50 (in the assay on MDA-MB-231; in assay [1]; in assay [2]) was 1 to 10 nM in each case.

For `COC(=O)CNc1oc2c(O)c(OC)ccc2c1C(=O)c1cc(OC)c(OC)c(OC)c1` [Example 24, [7-Hydroxy-6-methoxy-3-(3,4,5-trimethoxy-benzoyl)-benzofuran-2-ylamino]-acetic acid methyl ester], the IC50 (in the assay on MDA-MB-231; in assay [1]; in assay [2]) was 1 to 10 nM each time.

As to `COc1cc(C(=O)c2c(NCCN(C)C)oc3c(O)c(OC)ccc23)cc(OC)c1OC` [Example 21], the IC50 (with MDA-MB-231; in assay [1]; in assay [2]) was 10 to 100 nM each time.

Regarding `COc1cc(C(=O)c2c(C)oc3c(O)c(OC)ccc23)cc(OC)c1OC` [Example 11, 2-Methyl-7-hydroxy-3-(3,4,5-trimethoxybenzoyl)-6-methoxybenzofuran], the IC50 with MCF-7 was 2 nM; in assay [1], 0.1 to 1 nM; in assay [2], 10 to 100 nM. The “potency towards activated (tumour) versus quiescent (normal) endothelial cells” value in assay [1] is on record as “higher potency towards tumour endothelial cells (activated) over normal endothelial cells (quiescent)”. Moreover, the “potency in inhibiting tubulin polymerisation” value with tubulin is reported as “significantly greater potency than CA4 (1)”.

For `COc1cc(C(=O)c2coc3c(N)c(OC)ccc23)cc(OC)c1OC` [Example 2, (7-Amino-6-methoxybenzofuran-3-yl)(3,4,5-trimethoxyphenyl)methanone], the IC50 (with MDA-MB-231; in assay [1]; in assay [2]) was 1 to 10 nM throughout.

Consider `COc1cc(C(=O)c2c(N(C)C)oc3c(O)c(OC)ccc23)cc(OC)c1OC` [Example 22, (2-N,N′-Dimethylamino-7-hydroxy-6-methoxy-benzofuran-3-yl)-(3,4,5-trimethoxy-phenyl)-methanone], for which the IC50 (in the assay with MDA-MB-231; in assay [1]; in assay [2]) was 1 to 10 nM throughout.
